# Patent publication US10688093B2, “Methods, compositions, and uses of novel Fyn kinase inhibitors” (priority 2015, dated 2020)
# Biological target: full-length recombinant human FYN A (Homo sapiens (Human), UniProt P06241)
# Assay: ADP-Glo Kinase Assay of FYN kinase inhibition
# Assay type: biochemical
# Conditions: primary screen, initial compounds
# Outline: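 ADP-Glo read-out of peptide phosphorylation after 90 min RT with 12.5 pmol ATP and 100 pg 12-mer substrate. Enzyme was N-GST full-length human FYN A from insect cells, 3 pg, pre-incubated 30 min with compound, 10 points from 10 μM top, 3-fold steps; IC50 from curve.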
# full-length recombinant human FYN A, sequence (P06241 whole entry): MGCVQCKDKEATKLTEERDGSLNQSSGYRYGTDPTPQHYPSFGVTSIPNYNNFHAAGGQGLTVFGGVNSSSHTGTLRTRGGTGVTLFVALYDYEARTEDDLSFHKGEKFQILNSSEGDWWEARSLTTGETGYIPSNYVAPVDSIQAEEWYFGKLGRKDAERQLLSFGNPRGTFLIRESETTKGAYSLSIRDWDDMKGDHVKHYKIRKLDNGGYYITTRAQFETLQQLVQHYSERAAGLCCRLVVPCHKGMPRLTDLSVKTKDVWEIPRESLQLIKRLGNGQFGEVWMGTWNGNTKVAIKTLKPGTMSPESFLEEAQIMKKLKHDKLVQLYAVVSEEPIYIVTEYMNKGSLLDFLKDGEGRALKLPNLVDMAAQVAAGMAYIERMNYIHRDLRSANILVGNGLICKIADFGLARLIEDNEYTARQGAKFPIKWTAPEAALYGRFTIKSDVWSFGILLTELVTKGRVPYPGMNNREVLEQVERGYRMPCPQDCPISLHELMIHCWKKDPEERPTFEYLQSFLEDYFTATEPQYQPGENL
row,Compound,IC50 [nM]
1,"c1csc(-c2cn3c(-c4ccncc4)cnc3cn2)c1 [Compound 198, 3-(4-pyridyl)-6-(2-thienyl)imidazo [1,2-a]pyrazine]",5690
2,"Oc1ccc(-c2cn3c(-c4ccsc4)cnc3cn2)cc1 [Compound 199, 4-[3-(3-thienyl)imidazo [1,2-a]pyrazin-6-yl]phenol]",2700
3,"c1csc(-c2cn3c(-c4ccsc4)cnc3cn2)c1 [Compound 200, 6-(2-thienyl)-3-(3-thienyl)imidazo [1,2-a]pyrazine]",2250
4,"CC(=O)Nc1cccc(-c2cn3c(-c4ccsc4)cnc3cn2)c1 [Compound 201, N-[3-[3-(3-thienyl)imidazo [1,2-a]pyrazin-6-yl]phenyl] acetamide]",2330
5,"CS(=O)(=O)Nc1cccc(-c2cn3c(-c4ccsc4)cnc3cn2)c1 [Compound 202, N-[3-[3-(3-thienyl)imidazo [1,2-a]pyrazin-6-yl]phenyl] methane-sulfonamide]",3320
6,"c1coc(-c2cn3c(-c4ccsc4)cnc3cn2)c1 [Compound 203, 6-(2-furyl)-3-(3-thienyl)imidazo [1,2-a]pyrazine]",6250
7,"Oc1cccc(-c2cnc3cnc(-c4ccccc4)cn23)c1 [Compound 204, 3-(6-phenylimidazo [1,2-a]pyrazin-3-yl)phenol]",6550
8,"NC(=O)c1cccc(-c2cn3c(-c4cccc(O)c4)cnc3cn2)c1 [Compound 205, 3-[3-(3-hydroxyphenyl)imidazo[1,2-a]pyrazin-6-yl]benzamide]",1580
9,"Oc1ccc(-c2cnc3cnc(-c4cccnc4)cn23)cc1 [Compound 206, 4-[6-(3-pyridyl)imidazo [1,2-a]pyrazin-3-yl]phenol]",2730
10,OCc1ccc(-c2cn3c(-c4ccc(Oc5ccccc5)cc4)cnc3cn2)cc1 [Compound 207],4720
11,"Oc1ccc(-c2cnc3cnc(-c4ccc(Cl)cc4)cn23)cc1 [Compound 208, 4-[6-(4-chlorophenyl)imidazo[1,2-a]pyrazin-3-yl]phenol]",6380

# Same assay, conditions: secondary screen, re-synthesized and expanded compounds
row,Compound,IC50 [nM]
1,"OCc1cccc(-c2cnc3ccc(-c4ccncc4)nn23)c1 [BF000726364, [3-[6-(4-pyridyl)-imidpzo[1,2-b]pyridazin-3-yl]phenyl]-methanol]",973
2,"COc1ccc(-c2ccc3ncc(-c4cccc(CO)c4)n3n2)cc1OC [BF000726366, [3-[6-(3,4-dimethoxy-phenyl)-imidazo[1,2-b]pyridazin-3-yl]phenyl]-methanol]",893
3,"CC(=O)Nc1cccc(-c2ccc3ncc(-c4cccc(CO)c4)n3n2)c1 [BF000726367, N-[3-[3-[3-(hydroxy-methyl)phenyl]-imidazo[1,2-b]pyridazin-6-yl]phenyl]-acetamide]",1520
4,"COc1cc(-c2cnc3ccc(-c4ccc(OC)c(OC)c4)nn23)ccc1O [BF000726453, 4-[6-(3,4-dimethoxy-phenyl)-imidazo[l,2-b]pyridazin-3-yl]-2-methoxy-phenol]",39.4
5,"COc1cc(-c2cnc3ccc(-c4cccc(NC(C)=O)c4)nn23)ccc1O [BF000726454, N-[3-[3-(4-hydroxy-3-methoxy-phenyl)-imidazo[1,2-b]pyridazin-6-yl]phenyl]-acetamide]",104
6,"CC(=O)c1cccc(-c2cnc3ccc(-c4cccc(CO)c4)nn23)c1 [BF000726471, 1-[3-[6-[3-(hydroxy-methyl)-phenyl]-imidazo[1,2-b]pyridazin-3-yl]phenyl]-ethanone]",291
7,"COc1cc(-c2cnc3ccc(-c4ccc(CO)cc4)nn23)ccc1O [BF000726486, 4-[6-[4-(hydroxy-methyl)-phenyl]-imidazo[1,2-b]pyridazin-3-yl]-2-methoxy-phenol]",61.8
8,"COc1cc(-c2cnc3ccc(-c4cccc(CO)c4)nn23)ccc1O [BF000726487, 4-[6-[3-(hydroxy-methyl)-phenyl]-imidazo[1,2-b]pyridazin-3-yl]-2-methoxy-phenol]",63
9,"COc1cncc(-c2cnc3sc(NC4CCC(O)CC4)nn23)c1 (centres unmarked) [BF000802724, 4-[[5-(5-methoxy-3-pyridyl)-imidazo[2,1-b][1,3,4]-thiadiazol-2-yl]amino]-cyclohexanol]",301
10,"CN(C)CCCNC(=O)c1ccc(-c2cn3c(-c4ccc(Oc5ccccc5)cc4)cnc3cn2)cc1 [BF000816927, N-[3-(dimethyl-amino)-propyl]-4-[3-(4-phenoxy-phenyl)imidazo[1,2-a]pyrazin-6-yl]benzamide]",247
11,"CC(C)[C@@H](CO)Nc1ccc2ncc(-c3ccncc3)n2n1 [BF000817097, (2S)-3-methyl-2-[[3-(4-pyridyl)-imidazo[1,2-b]pyridazin-6-yl]amino]-butan-1-ol]",631
12,"CC(=O)c1cccc(-c2cnc3ccc(NCCCO)nn23)c1 [BF000817098, 1-[3-[6-(3-hydroxy-propyl-amino)-imdazo[1,2-b]pyridazin-3-yl]phenyl]-ethanone]",645
13,"c1cc(-c2cnc3ccc(NC4CCOCC4)nn23)ccn1 [BF000817099, 3-(4-pyridyl)-N-tetrahydro-pyran-4-yl-imidazo[1,2-b]pyridazin-6-amine]",270
14,"CC(=O)Nc1cccc(-c2cnc3ccc(-c4ccncc4)nn23)c1 [BF000817142, N-[3-[6-(4-pyridyl)-imidazo[1,2-b]pyridazin-3-yl]phenyl]-acetamide]",741
15,"COc1cc(-c2cnc3ccc(-c4ccncc4)nn23)ccc1O [BF000817169, 2-methoxy-4-[6-(4-pyridyl)-imidazo[1,2-b]pyridazin-3-yl]phenol]",79.4
16,"c1ccc(CNc2ccc3ncc(-c4ccncc4)n3n2)nc1 [BF000817170, 3-(4-pyridyl)-N-(2-pyridyl-methyl)-imidazo[1,2-b]pyridazin-6-amine]",170
17,"COc1cc(-c2cnc(N)c(-c3cc(OC)c(OC)c(OC)c3)c2)cc(OC)c1OC [BF000817175, 3,5-bis(3,4,5-trimethoxy-phenyl)-pyridin-2-amine]",85.4
18,COc1cc(-c2cc(-c3ccc(N4CCN(C(C)C)CC4)cc3)cnc2N)ccc1O [BF000817185],78.1
19,"COc1cc(-c2ccc3ncc(-c4ccc(O)c(OC)c4)n3n2)ccc1O [BF000817186, 4-[3-(4-hydroxy-3-methoxy-phenyl)-imidazo[1,2-b]pyridazin-6-yl]-2-methoxy-phenol]",29.4
20,"OCc1cccc(-c2ccc3ncc(-c4cccc(CO)c4)n3n2)c1 [BF000817188, [3-[3-[3-(hydroxy-methyl)-phenyl]-imidazo[1,2-b]pyridazin-6-yl]phenyl]-methanol]",828
21,"COc1ccc(-c2cnc3sc(NCC4CCOCC4)nn23)cc1OC [BF000817208, 5-(3,4-dimethoxy-phenyl)-N-(tetra-hydropyran-4-ylmethyl)-imidazo[2,1-b][1,3,4]-thiadiazol-2-amine]",1030
22,"CC(=O)Nc1cccc(-c2cnc3ccc(-c4cccc(CO)c4)nn23)c1 [BF000817329, N-[3-[6-[3-(hydroxy-methyl)-phenyl]-imidazo[1,2-b]pyridazin-3-yl]phenyl]-acetamide]",435
23,"COc1cc(-c2cc(-c3ccc(N4CCOCC4)cc3)cnc2N)ccc1O [BF000817413, 4-[2-amino-5-(4-morpholino-phenyl)-3-pyridyl]-2-methoxy-phenol]",212
24,"COc1ccc(-c2cnc(N)c(-c3ccc(N4CCN(C)CC4)cc3)c2)cc1O [BF000817418, 5-[6-amino-5-[4-(4-methyl-piperazin-1-yl)phenyl]-3-pyridyl]-2-methoxy-phenol]",9650
